Results from US20080207722A1, “Glepp-1 Inhibitors in the Treatment of Autoimmune and/or Inflammatory Disorders” (LABORATORIES SERONO SA, priority 2005, published 2008).
One block for each compound: values may come before it.

Legend:
Balb/c mice = assay: Dextran Sodium Sulfate-induced ulcerative colitis in mice; type: in vivo; settings: for body weight loss: po
Experimental: Ulcerative colitis (UC) was induced in female mice (Balb/c, 20-22 g, Elevage Janvier) by Dextran Sodium Sulfate (DSS 4%) administered in drinking water. The mice had free access to DSS during 7 days. Body weight was determined daily. The severity of the UC was assessed by a clinical score (range 0 to 4) estimating the constituency of the stool (0=firm, 1=loose, 2=diarrhea) and the presence of blood (0=no blood, 1=occult blood, 2=gross rectal bleeding). Seven days after the induction of the disease, the animals were sacrificed. The length and the weight of the colon were determined and the ratio Weight/Length/100 g body weight was calculated. The spleen weight was also determined.
Compound of the invention (10, 30 & 100 mg/kg, po) was suspended in 0.5% methocel/0.25% tween 20 and was administered twice daily at days 3, 4, 5 and 6 after the induction of the UC. Sulfasalazine (200 mg/kg, po) was used as reference compound.

[1] = biological target: T1, catalytic core of a human recombinant Glepp-1 (Homo sapiens, UniProt Q16827); assay: Glepp-1 PTP enzyme assay (DiFMUP dephosphorylation); type: biochemical; settings: Glepp-1, DiFMUP substrate, 30 minutes at room temperature; read-out: Inhibition (IC50)
T1 construct: using the catalytic core of a human recombinant Glepp-1 as the enzyme; made in house
T1 sequence (Q16827 938-1195 limits assumed): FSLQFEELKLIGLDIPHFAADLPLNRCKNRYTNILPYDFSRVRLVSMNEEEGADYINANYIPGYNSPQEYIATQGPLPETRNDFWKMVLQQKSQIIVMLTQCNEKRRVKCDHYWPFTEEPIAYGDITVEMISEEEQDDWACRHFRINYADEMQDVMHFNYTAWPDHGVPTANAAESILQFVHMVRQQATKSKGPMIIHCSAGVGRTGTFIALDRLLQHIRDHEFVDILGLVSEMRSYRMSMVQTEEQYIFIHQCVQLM
Excerpt: The PTP Enzyme Assay aims at determining the extent of inhibition of Glepp-1 in the presence of a test compound. The inhibition is illustrated by IC50 values which denote the concentration of test compound necessary to achieve an inhibition of 50% of Glepp-1 using the following concentration of the Glepp-1 substrate DiFMUP:
The DiFMUP assay allows to follow the dephosphorylation of DiFMUP (6,8-DiFluoro-4-MethylUmbelliferyl Phosphate)—which is the Glepp-1 substrate—mediated by Glepp-1 into its stable hydrolysis product, i.e. DiFMU (6,8-difluoro-7-hydroxy coumarin). Due to its rather low pKa and its high quantum yield, DiFMU allows to measure both acidic and alkaline phosphatase activities with a great sensitivity.
Assays were performed in a 96 well plate format, using the catalytic core of a human recombinant Glepp-1 as the enzyme and 6,8-DiFluoro-4-MethylUmbelliferyl Phosphate (DiFMUP, Molecular Probes, D-6567) as a substrate. Compounds to be tested were dissolved in 100% DMSO at a concentration of 2 mM. Subsequent dilutions of the test compounds (to yield a concentration of 100, 30, 10, 3, 1, 0.3, 0.1, 0.03, 0.01, 0.001 μM) were performed in 60% DMSO manually. 8 μl of diluted compound or vehicle (60% DMSO=control) was distributed to a black Costar 96 well plate. 42 μl of human recombinant Glepp-1 enzyme diluted in assay buffer (20 mM Tris HCl pH 7.5, 0.01% IGEPAL CA-630, 0.1 mM ethylenediaminetetracetic acid, 1 mM DL-Dithiothreitol) can be added to the dilutions of compound or vehicle (distributed to a black Costar 96 well plate), followed by 50 μl of DiFMUP diluted in the assay buffer. The reaction ran for 30 minutes at room temperature before reading the fluorescence intensity (integral or intensity) on a Perkin-Elmer Victor 2 spectrofluorimeter (excitation of 6,8-difluoro-7-hydroxy coumarin is at 355 nm, the emission at 460 nm, for 0.1 s). The percentage of inhibition is determined by measuring the relative fluorescence ion absence of a test compound (PTP inhibitor), i.e. with the solvent alone (5% DMSO). The IC50 values for inhibition were determined in triplicates.

THP-1 cells = assay: In vitro chemotaxis, MCP-1-induced, THP1 cells (transwell); type: cell-based; settings: Homo sapiens, MCP-1/CCL2 in lower chamber, 3 hours, read-out: block chemotaxis, EC50
Excerpt: The compounds of Formula (I), (II), (III), (IV), (V), (VI) and (VII), may be subjected to the following assays: • (1) Glepp-1 binding assay (in vitro) • (2) In vitro assay(s): Cell functional effect. Effect on MCP-1-induced chemotaxis on THP-1 cells • (3) Lymphocyte recruitment by thioglycollate (in vivo model for inflammation) • (4) Collagen induced arthritis (CIA) in mice (in vivo model for inflammation) • (5) Contact hypersensitivity (CHS is a T cell-mediated model of skin inflammation) • (6) EAE (in vivo model for MS) • (7) Ulcerative colitis
The assay was performed as follows: After starvation of THP1 cells in serum free medium for 3 hours, 10^7 cells/ml in medium containing 0.5% BSA, and inhibitors, when indicated. 100 μl of cells were applied to the top chamber (5 μm pore size transwell plates, COSTAR, New York) and 6001 of medium containing MCP-1/CCL2, in the absence or presence of test compounds, were added to the lower chamber. After incubation at 37° C. and 5% of CO2 for 3 hours, cells that passed through the membrane were collected and counted in a Beckman Coulter® AcT 5Diff™.

[2] = 10 mg/kg po twice daily days 3-6, versus vehicle treated group
[3] = 30 mg/kg po twice daily days 3-6, versus vehicle treated group
[4] = 100 mg/kg po twice daily days 3-6, versus vehicle treated group

Compound: CCCCCCN(Cc1ccc(C#Cc2ccc(CCCC)cc2)cc1)c1ccc(O)c(C(=O)O)c1 [5-[{4-[(4-butylphenyl)ethynyl]benzyl}(hexyl)amino]-2-hydroxybenzoic acid]
colon reduction, estimated by the Weight/Length ratio (Balb/c mice; [2]): −22%
colon reduction, estimated by the Weight/Length ratio (Balb/c mice; [3]): −28%
splenomegaly reduced (Balb/c mice; [3]): −31%
colon reduction, estimated by the Weight/Length ratio (Balb/c mice; [4]): −35%
splenomegaly reduced (Balb/c mice; [4]): −65%
body weight loss (Balb/c mice; 10, 30 & 100 mg/kg): prevented
IC50 [1]: < 1000 nM
EC50 (THP-1 cells): 1000 to 15000 nM

Compound: CCCCCCCCC#Cc1ccc(CN(C(=O)/C=C/c2cccc(C(F)(F)F)c2)c2ccc(O)c(C(=O)O)c2)cc1 [5-((4-dec-1-ynylbenzyl){(2E)-3-[3-(trifluoromethyl)phenyl]prop-2-enoyl}amino)-2-hydroxybenzoic acid]
IC50 [1]: < 1000 nM

Compound: N#Cc1ccc(C(=O)Nc2ccc(C(=O)N/N=C3\C(=O)Nc4ccc(I)cc43)cc2)cc1 [4-cyano-N-(4-{[(2Z)-2-(5-iodo-2-oxo-1,2-dihydro-3H-indol-3-ylidene)hydrazino]carbonyl}phenyl)benzamide]
IC50 [1]: < 1000 nM

Compound: CCCCCCN(Cc1ccccc1C#Cc1ccc(CCCC)cc1)C(=O)c1ccc(O)c(C(=O)O)c1 [5-{[{2-[(4-butylphenyl)ethynyl]benzyl}(hexyl)amino]carbonyl}-2-hydroxybenzoic acid]
colon reduction, estimated by the Weight/Length ratio (Balb/c mice; [2]): −47%
splenomegaly reduced (Balb/c mice; [2]): −25%
colon reduction, estimated by the Weight/Length ratio (Balb/c mice; [3]): −50%
splenomegaly reduced (Balb/c mice; [3]): −45%
body weight loss (Balb/c mice; 10 & 30 mg/kg): prevented

Compound: CCCCCCN(Cc1ccc(C#Cc2ccc(CCCC)cc2)cc1)C(=O)c1ccc(O)c(C(=O)O)c1 [5-{[{4-[(4-butylphenyl)ethynyl]benzyl}(hexyl)amino]carbonyl}-2-hydroxybenzoic acid]
IC50 [1]: < 1000 nM
EC50 (THP-1 cells): 1000 to 15000 nM

Second part, the compound after the results:

IC50 [1]: < 1000 nM
EC50 (THP-1 cells): 1000 to 15000 nM
Compound: CCCCCCc1ccc(C#Cc2ccc(CN(Cc3ccc(C(F)(F)F)cc3)C(=O)C(=O)O)cc2)cc1 [{{4-[(4-hexylphenyl)ethynyl]benzyl}[4-(trifluoromethyl)benzyl]amino}-(oxo)acetic acid]

IC50 [1]: < 1000 nM
Compound: O=C1NN(c2ccc(I)cc2)C(=O)/C1=C/c1ccc(Br)o1 [(4E)-4-[(5-bromo-2-furyl)methylene]-1-(4-iodophenyl)pyrazolidine-3,5-dione]

IC50 [1]: < 1000 nM
Compound: CCCCCCCCNC(=O)c1ccc(-c2nc(CN(Cc3ccc(OCC(=O)O)cc3)C(=O)CCc3ccccc3)cs2)cc1 [(4-{[[(2-{4-[(octylamino)carbonyl]phenyl}-1,3-thiazol-4-yl)methyl](3-phenylpropanoyl)amino]methyl}phenoxy)acetic acid]
